Type in all cases: biochemical
What all share (conditions): procedures of Example 14 (TR-FRET)
(In general: Time-resolved FRET reads energy transfer from a long-lived donor to a nearby acceptor.)

The target in assay [1] is JNK2 (Homo sapiens (Human), UniProt P45984). Kind of assay: JNK2 TR-FRET kinase assay (Example 14). The procedure: (§1) 14.3. Active JNK 1, 2 and 3 TR-FRET Assay
(§2) (1) Assay buffer #1 with 0.0025% Tween and 1 mM DTT was prepared using JNK buffer stock solution.
(§3) (2) Assay buffer #2 with 0.025% BSA was prepared using the assay buffer #1.
(§4) (3) Test compound solution preparation: 5× compound solution was prepared using assay buffer #1 with 5% DMSO. The compound solution (10 μl/well) was added to a 384-well plate (Corning, Cat No. 3654).
(§5) (4) aJNK1, 2 or 3 preparation: aJNK stock (100 μg/ml) at −80° C. was thawed on ice and an aJNK (1.6 ng/ml) solution was prepared using assay buffer #2. The aJNK solution (20 μl/well) was added to the plate and the plate was shaken. The enzyme was incubated with the compound at RT for 10 min. (5) ATP/substrate solution preparation: ATP and substrate stocks were thawed on ice. 2.5×ATP/substrate (e.g., 25 μM or 2.5 mM ATP/50 nM EPIW-1) was prepared using assay buffer #1. The ATP/substrate (20 μl/well) was added to the plate and the plate was shaken. The plate was incubated at RT for 15 min. Note: In an exemplary assay, the final ATP concentration was about 1 mM. (6) EDTA preparation: 30 mM EDTA was prepared using 0.5M EDTA stock and assay buffer #1. The EDTA (10 μl/well) was added to the plate to quench the enzyme reaction and the plate was shaken well. (7) Detection reagent preparation: Eu-63 and SA-XL stocks were thawed on ice. 4× Eu-63/SA-XL (2 nM Eu-63/9.4 nM SA-XL) was prepared using JNK detection buffer. The Eu-63/SA-XL solution (20 μl/well) was added to the plate and the plate was shaken. The plate was incubated at RT for 1 hr before reading the plate on LJL using ratiometric method named HTRF.
(§6) 14.4. Coupled JNK 1, 2 and 3 TR-FRET Assay
(§7) (1) Assay buffer with 0.0025% Tween, 0.01% BSA, and 1 mM DTT was prepared using JNK buffer stock solution.
(§8) (2) Test compound solution preparation: 5× compound solution, including EDTA background, was prepared using assay buffer with 5% DMSO. The compound solution (10 μl/well) was added to a 384-well plate (Corning, Cat No. 3654).
(§9) (3) uJNK1,2, or 3 activation reaction preparation: uJNK activation solution was prepared using assay buffer (1.6 ng/ml MKK4, 1.6 ng/ml MKK7, 16 ng/ml uJNK, and 20 uM ATP final). The uJNK activation solution (35 μl/well) was added to the plate, the plate was shaken, and the reaction mixture was incubated with compound at 30° C. for 60 min. (4) c-Jun substrate solution preparation: 50 nM EPIW-1, c-Jun peptide, was prepared using assay buffer (15 nM final). The EPIW-1 solution (15 μl/well) was added to the plate, the plate was shaken and incubated at 30° C. for 60 min. (5) EDTA preparation: 30 mM EDTA was prepared using 0.5M EDTA stock and assay buffer. The EDTA (10 μl/well) was added to the plate to quench the enzyme reaction and the plate was shaken well. (6) Detection reagent preparation: Eu-73 and SA-XL stocks were thawed on ice. 4× Eu-73/SA-XL (2 nM Eu-73/9.4 nM SA-XL) were prepared using JNK detection buffer. The Eu-73/SA-XL solution (20 μl/well) was added to the plate. The plate was shaken and incubated at RT for 1 hr before reading the plate on LJL using ratiometric method named HTRF.

In assay [2] the target is JNK3 (Homo sapiens (Human), UniProt P53779). Kind of assay: JNK3 TR-FRET kinase assay (Example 14). The method, then: as §1, §2, §3, §4, §5, §6, §7, §8, §9
For assay [3], the target named is JNK1 (Homo sapiens (Human), UniProt P45983). Kind of assay: JNK1 TR-FRET kinase assay (Example 14). The procedure:
as §1, §2, §3, §4, §5, §6, §7, §8, §9

27 compounds from US9796706B2, “Inhibitors of Jun N-terminal kinase” (IMAGO PHARMACEUTICALS, INC., priority 2009, dated 2017) can be followed below.

Each structure is given as a SMILES string.

Sequence of JNK3 (P53779 whole entry, species assumed): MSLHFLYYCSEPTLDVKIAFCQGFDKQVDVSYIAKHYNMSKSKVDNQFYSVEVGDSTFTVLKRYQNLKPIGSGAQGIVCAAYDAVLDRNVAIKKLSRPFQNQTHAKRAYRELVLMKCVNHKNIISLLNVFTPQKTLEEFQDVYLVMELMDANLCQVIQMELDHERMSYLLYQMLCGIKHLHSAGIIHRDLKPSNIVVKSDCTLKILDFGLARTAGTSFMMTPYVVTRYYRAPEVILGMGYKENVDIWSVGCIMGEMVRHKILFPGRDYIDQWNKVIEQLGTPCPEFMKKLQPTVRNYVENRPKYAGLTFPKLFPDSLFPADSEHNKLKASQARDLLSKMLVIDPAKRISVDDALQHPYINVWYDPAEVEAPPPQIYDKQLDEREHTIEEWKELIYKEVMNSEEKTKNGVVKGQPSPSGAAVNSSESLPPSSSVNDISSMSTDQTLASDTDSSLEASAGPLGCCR
Sequence of JNK2 (P45984 whole entry, species assumed): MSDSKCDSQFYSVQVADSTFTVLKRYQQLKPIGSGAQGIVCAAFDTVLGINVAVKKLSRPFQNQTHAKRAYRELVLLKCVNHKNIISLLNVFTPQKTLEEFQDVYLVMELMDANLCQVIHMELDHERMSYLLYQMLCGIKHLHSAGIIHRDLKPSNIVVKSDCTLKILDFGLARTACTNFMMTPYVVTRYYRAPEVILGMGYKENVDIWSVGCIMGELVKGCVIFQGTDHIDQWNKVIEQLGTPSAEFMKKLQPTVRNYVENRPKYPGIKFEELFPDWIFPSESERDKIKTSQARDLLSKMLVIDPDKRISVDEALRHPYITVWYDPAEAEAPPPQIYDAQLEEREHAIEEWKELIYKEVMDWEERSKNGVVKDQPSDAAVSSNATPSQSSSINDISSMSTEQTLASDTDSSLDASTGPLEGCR
Sequence of JNK1 (P45983 other isoform, or with tags, fused parts or gaps isoform P45983-2, species assumed): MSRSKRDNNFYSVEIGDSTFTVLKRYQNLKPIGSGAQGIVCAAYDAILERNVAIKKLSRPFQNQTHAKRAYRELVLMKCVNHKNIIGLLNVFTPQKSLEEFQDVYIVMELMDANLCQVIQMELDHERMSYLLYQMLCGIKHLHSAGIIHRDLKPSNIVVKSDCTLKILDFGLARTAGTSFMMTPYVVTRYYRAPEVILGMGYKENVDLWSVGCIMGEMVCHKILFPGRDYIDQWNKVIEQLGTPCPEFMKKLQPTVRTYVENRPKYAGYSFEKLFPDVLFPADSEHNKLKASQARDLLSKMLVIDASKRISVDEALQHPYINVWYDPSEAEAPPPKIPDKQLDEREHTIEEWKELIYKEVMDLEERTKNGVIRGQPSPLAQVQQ

The IC50 is the midpoint of a concentration-inhibition curve. The low end stands for greater potency in that assay, the high end for weaker potency in that assay. Compound `Cn1ncnc1-c1ncsc1NC(=O)Cc1cccc2cnccc12` [2-(isoquinolin-5-yl)-N-(4-(1-methyl-1H-1,2,4-triazol-5-yl)thiazol-5-yl)acetamide] gave an IC50 in assay [1] of 0.1 to 10 µM.

`Cc1nnc(-c2c(C)csc2NC(=O)Cc2ccc(-c3ccncc3)cc2)[nH]1` [N-(4-methyl-3-(5-methyl-4H-1,2,4-triazol-3-yl)thiophen-2-yl)-2-(4-(pyridin-4-yl)phenyl)acetamide]: the IC50 in assay [2] is 100 to 10000 nM.

For the compound `Cc1n[nH]c(-c2c(C)csc2NC(=O)Cc2ccc(OCCCN3CCCCC3)cc2)n1` [N-(4-methyl-3-(3-methyl-1H-1,2,4-triazol-5-yl)thiophen-2-yl)-2-(4-(3-(piperidin-1-yl)propoxy)phenyl)acetamide], the IC50 in assay [2] lay in the range of 100 to 10000 nM; in assay [3], 100 to 10000 nM; in assay [1], 0.1 to 10 µM.

For `O=C(Cn1c(=O)ccc2nc(C(F)(F)F)ccc21)Nc1scc(Br)c1-c1ncn[nH]1` [N-(4-bromo-3-(1H-1,2,4-triazol-5-yl)thiophen-2-yl)-2-(2-oxo-6-(trifluoromethyl)-1,5-naphthyridin-1(2H)-yl)acetamide], the IC50 in assay [2] was less than 100 nM; in assay [3], less than 100 nM; in assay [1] it was less than 0.1 µM.

Regarding `O=C(CN1C(=O)CCc2ncccc21)Nc1scc(Br)c1-c1nccs1` [N-(4-bromo-3-(thiazol-2-yl)thiophen-2-yl)-2-(2-oxo-3,4-dihydro-1,5-naphthyridin-1(2H)-yl)acetamide], the IC50 in assay [2] was less than 100 nM; in assay [3] it was less than 100 nM; in assay [1] it was 0.1 to 10 µM.

With `O=C(CN1C(=O)CCc2ncccc21)Nc1scc(Br)c1-c1ncco1` [N-(4-bromo-3-(oxazol-2-yl)thiophen-2-yl)-2-(2-oxo-3,4-dihydro-1,5-naphthyridin-1(2H)-yl)acetamide], the IC50 is less than 100 nM in assay [2], less than 100 nM in assay [3] and less than 0.1 µM in assay [1].

With `N#Cc1csc(NC(=O)CN2C(=O)CCc3ncccc32)c1-c1nc2ccccc2s1` [N-(3-(benzo[d]thiazol-2-yl)-4-cyanothiophen-2-yl)-2-(2-oxo-3,4-dihydro-1,5-naphthyridin-1(2H)-yl)acetamide], the IC50 is 100 to 10000 nM in assay [2], 100 to 10000 nM in assay [3] and 0.1 to 10 µM in assay [1].

For `O=C(Cn1c(=O)ccc2ncccc21)Nc1scc(Br)c1-c1ncn[nH]1` [N-(4-bromo-3-(1H-1,2,4-triazol-5-yl)thiophen-2-yl)-2-(2-oxo-1,5-naphthyridin-1(2H)-yl)acetamide], the figures for the IC50 in assay [2], in assay [3] and in assay [1] were less than 100 nM, less than 100 nM and less than 0.1 µM, respectively.

As to `O=C(Cc1cccc2cnccc12)Nc1ccsc1-c1csc(Cl)n1` [N-(2-(2-chlorothiazol-4-yl)thiophen-3-yl)-2-(isoquinolin-5-yl)acetamide], the figures for the half-inhibitory concentration (IC50) in assay [2], in assay [3] and in assay [1] were 100 to 10000 nM, 100 to 10000 nM and greater than 10 µM, respectively.

For the compound `Cc1nc(-c2sccc2NC(=O)CN2C(=O)CCc3ccccc32)c[nH]1` [N-(2-(2-methyl-1H-imidazol-4-yl)thiophen-3-yl)-2-(2-oxo-3,4-dihydroquinolin-1(2H)-yl)acetamide], the figures for the IC50 in assay [2], in assay [3] and in assay [1] were greater than 10000 nM, greater than 10000 nM and greater than 50 µM, respectively.

For the compound `O=C(Cc1cccc2cnccc12)Nc1scnc1-c1ncn[nH]1` [N-(4-(1H-1,2,4-triazol-5-yl)thiazol-5-yl)-2-(isoquinolin-5-yl)acetamide], the values for the half-inhibitory concentration (IC50) in assay [2], in assay [3] and in assay [1] were 100 to 10000 nM, 100 to 10000 nM and 0.1 to 10 µM, respectively.

With `O=C(Cn1c(=O)ccc2cc(C(F)(F)F)ccc21)Nc1scc(Br)c1-n1nccn1` [N-(4-bromo-3-(2H-1,2,3-triazol-2-yl)thiophen-2-yl)-2-(2-oxo-6-(trifluoromethyl)quinolin-1(2H)-yl)acetamide], the IC50 in assay [2] was less than 100 nM; in assay [3], less than 100 nM; in assay [1], 0.1 to 10 µM.

With `O=C(Cc1cccc2ncsc12)Nc1scc(Br)c1-c1ncn[nH]1` [2-(benzo[d]thiazol-7-yl)-N-(4-bromo-3-(1H-1,2,4-triazol-5-yl)thiophen-2-yl)acetamide], the IC50 was less than 100 nM in assay [2], less than 100 nM in assay [3] and 0.1 to 10 µM in assay [1].

With `Cc1csc(NC(=O)Cc2cccc3nccnc23)c1-c1ncn[nH]1` [N-(4-methyl-3-(1H-1,2,4-triazol-5-yl)thiophen-2-yl)-2-(quinoxalin-5-yl)acetamide], the IC50 in assay [2] lay within 100 to 10000 nM; in assay [3] it was 100 to 10000 nM; in assay [1], 0.1 to 10 µM.

In assay [1], `Cc1noc(-c2sccc2NC(=O)Cc2cccc3ccccc23)n1` [N-(2-(3-methyl-1,2,4-oxadiazol-5-yl)thiophen-3-yl)-2-(naphthalen-1-yl)acetamide] yielded a half-maximal inhibitory concentration (IC50) greater than 50 µM.

In the case of `COc1ccc(CC(=O)Nc2ccsc2-c2ncco2)cc1` [2-(4-methoxyphenyl)-N-(2-(oxazol-2-yl)thiophen-3-yl)acetamide], the IC50 in assay [1] is greater than 10 µM.

In assay [2], `O=C(Cc1cccc2ccccc12)Nc1ccsc1-c1ccccn1` [2-(2-pyridyl)-3-(1-naphthylacetylamino)thiophene] registered an IC50 of 100 to 10000 nM.

On to `Cc1n[nH]c(-c2sccc2NC(=O)Cc2ccc(N3CCCC3=O)cc2)n1` [N-(2-(3-methyl-1H-1,2,4-triazol-5-yl)thiophen-3-yl)-2-(4-(2-oxopyrrolidin-1-yl)phenyl)acetamide], for which the IC50 in assay [1] was in the range of 0.1 to 10 µM.

As to `Cc1csc(NC(=O)Cc2cccc3ncccc23)c1-c1ncn[nH]1` [N-(4-methyl-3-(1H-1,2,4-triazol-5-yl)thiophen-2-yl)-2-(quinolin-5-yl)acetamide], the half-inhibitory concentration (IC50) in assay [1] fell in the range of 0.1 to 10 µM.

As for `O=C(Cc1cccc2ccccc12)Nc1ccsc1-c1cc[nH]n1` [N-(2-(1H-pyrazol-3-yl)thiophen-3-yl)-2-(naphthalen-1-yl)acetamide], in assay [1], the concentration for half-maximal inhibition (IC50) was greater than 50 µM.

Consider `Cc1csc(NC(=O)CN2C(=O)CCc3ccccc32)c1-c1ncn[nH]1` [N-(4-methyl-3-(1H-1,2,4-triazol-5-yl)thiophen-2-yl)-2-(2-oxo-3,4-dihydroquinolin-1(2H)-yl)acetamide], for which the IC50 in assay [2] and in assay [3] was less than 100 nM each time.

The compound `COc1ccc(CC(=O)Nc2ccsc2-c2nc(N)n[nH]2)cc1` [N-(2-(3-amino-1H-1,2,4-triazol-5-yl)thiophen-3-yl)-2-(4-methoxyphenyl)acetamide] showed an IC50 in assay [1] of 0.1 to 10 µM.

In assay [1], `COc1ccc(CC(=O)Nc2ccsc2-c2nc(C)n[nH]2)cc1` [2-(4-methoxyphenyl)-N-(2-(3-methyl-1H-1,2,4-triazol-5-yl)thiophen-3-yl)acetamide] displayed a half-maximal inhibitory concentration (IC50) of 0.1 to 10 µM.

In assay [1], `O=C(Cc1ccc2c(c1)OCCO2)Nc1ccsc1-c1ncn[nH]1` [N-(2-(1H-1,2,4-triazol-5-yl)thiophen-3-yl)-2-(2,3-dihydrobenzo[b][1,4]dioxin-6-yl)acetamide] displayed an IC50 of 0.1 to 10 µM.

In turn, `COc1ccc(CC(=O)Nc2sccc2-c2nn[nH]n2)cc1` [N-(3-(2H-tetrazol-5-yl)thiophen-2-yl)-2-(4-methoxyphenyl)-acetamide] gave an IC50 in assay [1] greater than 50 µM.

As to `O=C(Cc1cccc2cccnc12)Nc1scc(Br)c1-c1ncn[nH]1` [N-(4-bromo-3-(1H-1,2,4-triazol-5-yl)thiophen-2-yl)-2-(quinolin-8-yl)acetamide], the IC50 in assay [2] was 100 to 10000 nM; in assay [1], 0.1 to 10 µM.

Turning to `Cc1cc(-c2sccc2NC(=O)Cc2cccc3ccccc23)n[nH]1` [N-(2-(5-methyl-1H-pyrazol-3-yl)thiophen-3-yl)-2-(naphthalen-1-yl)acetamide], the IC50 in assay [1] was greater than 50 µM.
